Laboratory results as given in publication PMC3629922 (ACS medicinal chemistry letters, 2013).

Legend:
D2 receptor = settings: cited from earlier work
5-HT2B receptor [1] = molecular target: T1, 5-HT2B receptor (Homo sapiens, UniProt P41595); assay: 5-HT2B functional assay using HTRF quantitation of IP1 accumulation; assay type: cell-based
D4 = molecular target: T2, D4 (Homo sapiens, UniProt P21917); assay: D4 functional assay; assay type: cell-based; settings: performed at the PDSP
T2 sequence (P21917 1-419): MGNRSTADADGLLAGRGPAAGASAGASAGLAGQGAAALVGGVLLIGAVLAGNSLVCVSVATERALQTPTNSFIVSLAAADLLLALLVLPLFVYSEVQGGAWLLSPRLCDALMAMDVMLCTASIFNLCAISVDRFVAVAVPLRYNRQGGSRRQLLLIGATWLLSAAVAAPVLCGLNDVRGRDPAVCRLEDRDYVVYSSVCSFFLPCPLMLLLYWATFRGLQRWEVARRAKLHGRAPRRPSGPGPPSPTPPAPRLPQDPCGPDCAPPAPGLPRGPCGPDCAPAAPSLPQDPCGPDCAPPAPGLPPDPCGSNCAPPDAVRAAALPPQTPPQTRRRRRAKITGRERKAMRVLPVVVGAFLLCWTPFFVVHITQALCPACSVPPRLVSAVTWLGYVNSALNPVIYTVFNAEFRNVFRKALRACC

5-HT2B receptor [2] = molecular target: T1, 5-HT2B receptor; assay: 5-HT2B functional antagonism against serotonin; assay type: cell-based
5-HT2B receptor [3] = molecular target: T1, 5-HT2B receptor; assay: 5-HT2B functional assay, intracellular calcium mobilization; assay type: cell-based; settings: FLIPR Tetra, n = 5
D2 = D2 (Homo sapiens, UniProt P14416); assay: D2 functional assay; assay type: cell-based; settings: performed at the PDSP
5-HT2B receptor [4] = molecular target: T1, 5-HT2B receptor; settings: binding and functional assays; cited from earlier work
[5] = system: 5-HT2B receptors in porcine pulmonary arteries; settings: cited from earlier work

T1 sequence (P41595 whole entry): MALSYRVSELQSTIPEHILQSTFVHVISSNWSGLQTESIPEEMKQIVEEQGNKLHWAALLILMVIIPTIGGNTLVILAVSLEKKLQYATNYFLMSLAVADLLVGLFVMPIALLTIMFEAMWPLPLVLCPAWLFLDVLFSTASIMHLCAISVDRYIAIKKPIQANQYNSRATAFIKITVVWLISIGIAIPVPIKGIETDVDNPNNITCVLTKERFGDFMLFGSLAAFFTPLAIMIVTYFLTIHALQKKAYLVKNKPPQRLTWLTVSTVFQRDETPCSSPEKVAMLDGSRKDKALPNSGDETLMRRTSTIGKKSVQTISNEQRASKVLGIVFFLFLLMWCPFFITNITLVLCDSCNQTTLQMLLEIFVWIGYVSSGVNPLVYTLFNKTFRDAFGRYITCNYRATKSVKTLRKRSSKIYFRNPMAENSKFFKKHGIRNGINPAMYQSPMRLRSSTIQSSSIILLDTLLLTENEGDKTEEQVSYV
Chain of D2 (P14416 whole entry): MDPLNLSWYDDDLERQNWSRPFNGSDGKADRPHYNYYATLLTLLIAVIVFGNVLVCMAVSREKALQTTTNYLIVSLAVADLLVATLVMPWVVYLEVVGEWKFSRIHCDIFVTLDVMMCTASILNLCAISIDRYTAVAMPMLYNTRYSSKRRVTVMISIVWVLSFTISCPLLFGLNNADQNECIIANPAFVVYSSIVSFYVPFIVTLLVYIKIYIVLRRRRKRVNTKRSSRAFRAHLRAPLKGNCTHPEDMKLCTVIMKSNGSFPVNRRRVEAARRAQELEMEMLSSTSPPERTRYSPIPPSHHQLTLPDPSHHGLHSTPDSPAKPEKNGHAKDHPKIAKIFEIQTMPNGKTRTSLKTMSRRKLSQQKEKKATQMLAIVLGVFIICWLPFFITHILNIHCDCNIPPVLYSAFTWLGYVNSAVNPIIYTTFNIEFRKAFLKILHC

Row | SMILES | Functionality at the 5-HT2B receptor (IP1 assay) (5-HT2B receptor [1]) | Antagonism against serotonin at the 5-HT2B receptor (5-HT2B receptor [2]) | Functionality at the human 5-HT2B receptor (calcium mobilization assay) (5-HT2B receptor [3]) | other results
1 | CSC[C@@H]1C[C@@H]2c3cccc4[nH]cc(c34)C[C@H]2N(C)C1 [6-methylpergolide] | – | – | – | Functionality at the D2 receptor (D2 receptor): full agonists
2 | C=CCN1C[C@H](C(=O)N(CCCN2CCOCC2)C(=O)NCC)C[C@@H]2c3cccc4[nH]cc(c34)C[C@H]21 [Compound 1] | full agonists | – | – | –
3 | CCNC(=O)N(CCCN(C)C)C(=O)[C@@H]1C[C@@H]2c3cccc4c3c(cn4C)C[C@H]2N(C)C1 [Compound 9, 1,6-Dimethylcabergoline] | no agonism | potent antagonists | no agonism | D4 functionality (D4): full D4 agonist; D2 functionality (D2): potent but partial D2 agonist
4 | CN(C)CCCNC(=O)[C@@H]1C[C@@H]2c3cccc4c3c(cn4C)C[C@H]2N(C)C1 [Compound 14] | minimal to no agonism | potent antagonists | minimal to no agonism | –
5 | COC(OC)[C@@H]1C[C@@H]2c3cccc4c3c(cn4C)C[C@H]2N(C)C1 [Compound 15] | no agonism | potent antagonists | no agonism | –
6 | C=CCN1C[C@H](C(=O)N(CCCN(C)C)C(=O)NCC)C[C@@H]2c3cccc4[nH]cc(c34)C[C@H]21 [cabergoline, reference compound] | full agonists | – | – | –
7 | CC[C@@H](CO)NC(=O)[C@@H]1C=C2c3cccc4[nH]cc(c34)C[C@H]2N(C)C1 [methylergonovine] | – | – | – | Activity at the 5-HT2B receptor (5-HT2B receptor [4]): partial agonist
8 | CC[C@@H](CO)NC(=O)[C@@H]1C=C2c3cccc4c3c(cn4C)C[C@H]2N(C)C1 [methysergide] | – | – | – | Activity at the 5-HT2B receptor (5-HT2B receptor [4]): significantly weaker activity
9 | CCCN1C[C@H](CSC)C[C@@H]2c3cccc4[nH]cc(c34)C[C@H]21 [pergolide] | – | – | – | Functionality at the D2 receptor (D2 receptor): full agonists; Functionality at 5-HT2B receptors in porcine pulmonary arteries [5]: functional agonist
